Measurements taken from publication PMC6202380 (2018).
Blank lines part the entries; values can stand above or below the compound they belong to.

How the values were obtained:
[1] = tested on: hras-1 (DNA, G4) TCGGGTTGCGGGCGCAGGGCACGGGCG; test: CD spectroscopy; conditions: 100 mM K+; K-100 buffer, pH 7.2, 20 °C; 5 µM DNA, 10 µM ligand
[2] = tested on: 22AG (DNA, G4) AGGGTTAGGGTTAGGGTTAGGG; test: fluorimetric titration; conditions: 100 mM K+; K-100 buffer, pH 7.2; 2 µM ligand; binding constant could not be determined
[3] = tested on: ^BrU-22AG (DNA, G4, 5-bromouracil (replacing T) at 5, 6, 11, 12, 17, 18) AGGGTTAGGGTTAGGGTTAGGG; test: PAGE of UVA photoadduct; conditions: 100 mM K+; covalent; K-100 buffer, pH 7.2; 5 µM DNA, 25 µM ligand, 365 nm
[4] = tested on: F-CEB25^L111-T (DNA, G4) AAGGGTGGGTGGGTGGGT; test: FRET melting; conditions: 1 mM K+, 99 mM Li+; 10 mM LiAsO2Me2, pH 7.2 (K-1); 0.2 µM DNA, 1 µM ligand
[5] = tested on: 22AG (DNA, G4) AGGGTTAGGGTTAGGGTTAGGG; test: fluorimetric titration, independent-site model; conditions: 2 µM ligand
[6] = tested on: bcl2Mid (DNA, G4) GGGCGCGGGAGGAATTGGGCGGG; test: fluorimetric titration, independent-site model; conditions: 100 mM K+; 10 mM LiAsO2Me2, pH 7.2 (K-100); 2 µM ligand
[7] = tested on: 22CTA (DNA, G4) AGGGCTAGGGCTAGGGCTAGGG; test: fluorimetric titration, independent-site model; conditions: 100 mM K+; 10 mM LiAsO2Me2, pH 7.2 (K-100); 2 µM ligand
[8] = tested on: hras-1 (DNA, G4) TCGGGTTGCGGGCGCAGGGCACGGGCG; test: fluorimetric titration, independent-site model; conditions: 100 mM K+; 10 mM LiAsO2Me2, pH 7.2 (K-100); 2 µM ligand
[9] = tested on: CEB25^WT (DNA, G4) AAGGGTGGGTGTAAGTGTGGGTGGGT; test: fluorimetric titration, independent-site model; conditions: 100 mM K+; K-100 buffer, pH 7.2; 2 µM ligand; Table 2 prints 0.54, text gives 0.54 to CEB25^L111
[10] = tested on: CEB25^L111 (DNA, G4) AAGGGTGGGTGGGTGGGT; test: fluorimetric titration, independent-site model; conditions: 100 mM K+; K-100 buffer, pH 7.2; 2 µM ligand; value from text, Table 2 prints 1.5 for this oligonucleotide
[11] = tested on: Pu24T (DNA, G4) TGAGGGTGGTGAGGGTGGGGAAGG; test: fluorimetric titration, independent-site model; conditions: 100 mM K+; 10 mM LiAsO2Me2, pH 7.2 (K-100); 2 µM ligand
[12] = tested on: ds26 (DNA, duplex) CAATCGGATCGAATTCGATCCGATTG; test: fluorimetric titration, independent-site model; conditions: 100 mM K+; 10 mM LiAsO2Me2, pH 7.2 (K-100); 2 µM ligand
[13] = tested on: 22AG (DNA, G4) AGGGTTAGGGTTAGGGTTAGGG; test: CD spectroscopy; conditions: 100 mM K+; K-100 buffer, pH 7.2, 20 °C; 5 µM DNA, 10 µM ligand

- binding [1]: yes
- binding [2]: yes
- binding [3]: yes
SMILES: c1cc2ccc3ccc(CCCCNCCN4CCNCc5ccc6cc(ccc6c5)CNCCOCCNCc5ccc6cc(ccc6c5)CNCC4)c4ccc(c1)c2c34

- ΔT½ [4]: 11 °C
- binding [3]: yes
- Ka ([5]; 100 mM K+, 10 mM LiAsO2Me2, pH 7.2 (K-100)): 1.8e+06 M⁻¹
- Ka ([5]; 100 mM Na+, 10 mM LiAsO2Me2, pH 7.2 (Na-100)): 1.4e+06 M⁻¹
- Ka [6]: 1.8e+06 M⁻¹
- Ka [7]: 3.9e+06 M⁻¹
- Ka [8]: 1.1e+06 M⁻¹
- Ka [9]: 0.54 10^6 M^-1
- Ka [10]: 540000 M⁻¹
- Ka [11]: 1.5e+06 M⁻¹
- Ka [12]: 480000 M⁻¹
SMILES: c1cc2ccc3ccc(CCCCNCCN4CCNCc5ccc6cc(ccc6c5)CNCCN(CCNCCCCc5ccc6ccc7cccc8ccc5c6c78)CCNCc5ccc6cc(ccc6c5)CNCC4)c4ccc(c1)c2c34

- binding [13]: yes
- binding [1]: yes
SMILES: NCCCN1CCNCc2ccc3cc(ccc3c2)CNCCOCCNCc2ccc3cc(ccc3c2)CNCC1

- ΔT½ [4]: 13 °C
SMILES: C[n+]1cc(NC(=O)c2ccc3ccc4ccc(C(=O)Nc5cc6ccccc6[n+](C)c5)nc4c3n2)cc2ccccc21

- binding [13]: yes
- binding [1]: yes
SMILES: NCCN(CCN)CCNCCCCc1ccc2ccc3cccc4ccc1c2c34
